Conditions: rat, in vivo
Protocol: Urine samples were collected immediately before administration and then at 1 h and 2.5 h after administration. […] Blood samples were collected immediately before administration and then at 1, 2 and 3 h after administration. After collection, blood samples were spun down at 2000 rpm for 10 min. and the plasma was collected. Both, plasma and urine samples were frozen at −20° C.
Aliquots of the stock solution ([…]) were mixed with 40 μl biofluid (urine or blood plasma) to give a 15 mM trityl radical solution. These solutions were dispensed as droplets into liquid nitrogen to provide the material as vitrified pellets suitable for hyperpolarisation. The solid samples were placed in turn within the DNP magnet and hyperpolarised overnight. The samples were dissolved by injection of a mixture of methanol and acetic acid (100:1). The dissolved samples were quickly manually transferred (approx. 4 s transfer time) to a high-resolution magnet of 9.4 T and single acquisition ^13C-1D-NMR-spectra were acquired.
Quantification of the unknown amount of probe compound/metabolites in the biofluid samples was based on these enhancements and the known amount of probe compound/metabolite used to generate them. […]

Row | Signals present in NMR spectrum of urine sample | Structure (SMILES)
1 | present | N=C(N)N1Cc2ccccc2C(O)C1 (centres unmarked) [4-OH-Debrisoquine, 4-hydroxy-debrisoquine]
2 | present | N=[13C](N)N1CCc2ccccc2C1 [Debrisoquine]

From patent publication US20050233470A1, “Methods and compound mixtures for determining protein activity using nmr spectroscopy” (priority 2002, published 2005)
